Experiments:
[1] = Stability, second study: cold-warm cycle in climate room for 60 hours; settings: formulation A, 4°C/25°C/40°C cycle, dark or UV/Vis light
[2] = Stability, first study: real storage conditions, HPLC; settings: formulation A, room temperature, both in the presence and in the absence of light

With `Nc1cc(N2CCCCC2)nc(N)[n+]1[O-]` [Minoxidil] the “chemical stability after cold-heat shock” value [1] was “chemical stability of Minoxidil into the gel also after a cold-heat shock” and the “stability of Minoxidil in the gel” value [2] was “stable in the gel for 5 weeks”.

Reference: patent publication EP3250181B1, “MINOXIDIL-BASED PHARMACEUTICAL FORMULATION FOR THE TOPICAL USE AND KIT THEREOF” (Farmalabor S.r.l., priority 2014, dated 2016)
